Experimental data: patent publication US20250152605A1, “METHOD AND DRUG FOR TREATING NEURONAL CEROID LIPOFUSCINOSIS” (priority 2021, published 2025)

Experiments:
[1] = Drug concentration in mouse brain tissue (UPLC-MS/MS); assay type: in vivo; settings: Cln3 KO mice
Experimental: In order to determine whether Compound G can pass through the blood-brain barrier and its drug concentration in the brain tissue of mice, the following experiment was performed: Compound G was dissolved in drinking water at a concentration of 1 mg/mL and fed to mice, and a solvent was added to the drinking water of control mice; mice treated with Compound G were removed at 8 different random time points, and after Avertin anesthesia, their hearts were perfused with 20 mL dPBS to rinse the blood in the mice; non-dosed mice were also perfused in the same manner as blank tissue; whole mouse brain tissue was removed, weighed, snap frozen in liquid nitrogen and ground using Mixer Mill (RETSCH MM400) with a shaking frequency of 26 beats/sec for 5 minutes; a small molecule with similar structural properties to Compound G was prepared in advance as an internal reference (denoted IS) and IS was dissolved in 80% aqueous methanol to 100 ng/ml. […]
After using dPBS to completely perfuse the systemic blood, the mice were euthanized and the brain tissues thereof were taken out. The drug concentrations of Compound G in the mouse brain tissues were measured.

[2] = test system: p62; assay: p62 transcription (qRT-PCR) and p62 protein level in human neurons; assay type: cell-based
Experimental: (§1) The cells in the cell-culture dish were collected, extracted using AxyPrep Total RNA Mini Prep Kit or Qiagen AxyPrep Total RNA Mini Prep Kit, and the extracted RNA concentration is measured using Nanodrop; the extracted mRNA was reverse transcribed into cDNA by Transgen's EasyScript® One-Step gDNA Removal and cDNA Synthesis SuperMix and the primers used for reverse transcription were Oligo dT primers; the completion of reverse transcription followed by qRT-PCR reaction through PerfectStart™ Green qPCR SuperMix to detect the expression of the target gene; the qRT-PCR reaction was performed on the Bio-Rad CFX96 Real-Time PCR system; see Table 2 and Table 3 for the 20 μL qRT-PCR reaction system and reaction procedures; data analysis was performed in Prism 7 software using the 2^−ΔΔCt process with GAPDH as internal reference for relative quantification of the expression of the target gene.
FIG. 41: Compound G increased intracellular p62 protein levels. (a) 24 hours after treatment of human neurons with Compound G or after KEAP1 knockdown, transcriptional levels of the p62 gene were detected by qRT-PCR (n=3). (b) 24 hours after treatment of human neurons with Compound G or after KEAP1 knockdown, intracellular p62 protein levels were detected by Western blotting and band intensity statistics (n=3) were performed. […]

[3] = test system: CLN3^Δex7/8 human neurons; assay: qRT-PCR of autophagy-related and lysosomal genes in human neurons; assay type: cell-based; settings: 6 hours
Experimental: as §1
(§2) The effect of Compound G on the transcription level of the autophagy-related genes and the lysosomal genes was further detected in the induced CLN3^Δex7/8 human neural stem cells and neurons.

[4] = test system: CLN3^Δex7/8 neurons; assay: Mitochondrial autophagy level (mtDNA/nDNA after CCCP and Baf-A1); assay type: cell-based, human; settings: CCCP-induced mitochondrial damage
Experimental: The medium in the cell culture plate was aspirated and the cells were digested after washing once with dPBS. After stopping the digestion with cell medium, the supernatant was removed by centrifugation and the cells were resuspended with 200 μL dPBS. DNeasy®) Blood & Tissue Kit was used to extract DNA from cells. Then, referring to the qRT-PCR system and reaction procedure in Tables 2 and 3, the qRT-PCR reaction was performed using the extracted DNA instead of the cDNA. Data analysis was performed in Prism 7 software using the 2^ΔΔCt process with genomic gene b2M as internal reference for relative quantification of the number of mitochondrial sequences MinArc. Primers for determining intracellular mitochondria number were as follows:
Damaged mitochondria within a cell can be eliminated through an autophagic process named mitochondrial autophagy. Functional defects in autophagy affect the elimination of damaged mitochondria, which in turn disrupts mitochondrial homeostasis in neurons. After inducing mitochondrial damage in wild-type and CLN3^Δex7/8 neurons using the mitochondrial uncoupler CCCP, and then inhibiting the elimination of damaged mitochondria by Baf-A1, the increases of intracellular mitochondrial number (mtDNA/nDNA) after Baf-A1 treatment can represent the intracellular mitochondrial autophagy level.

[5] = test system: Cln3 KO mice; assay: Body weight, brain tissue mass and toxicity in Cln3 KO mice
Experimental: The control group was Cln3 KO mice whose drinking water contained an equal amount of solvent. Body weight changes were recorded during administration.
Starting from day 21 on which the mice were weaned, Compound G or the solvent was added to the drinking water of Cln3 KO mice, and the weight changes of the mice were recorded. […] When the mice reached six months of age, they were euthanized and the brain tissues were taken out and weighed.

[6] = test system: CLN3^Δex7/8 human neural stem cells; assay: qRT-PCR of autophagy-related and lysosomal genes in human neural stem cells; assay type: cell-based; settings: 6 hours
Experimental: as §1, §2

## C/C=C1\C(=O)C[C@H]2[C@@H]3CCC4=CC(=O)CC[C@]4(C)[C@H]3CC[C@]12C [Compound G, (Z)-guggulsterone]
[1]; 1 mg/mL in drinking water, different time points (n=8)
  average concentration in the mouse brain: 814.74±834.19 ng/g brain tissue
[1]; drinking water
  penetration of the blood-brain barrier: could penetrate the blood-brain barrier
[2]; 24 hours, Western blotting
  p62 protein level: increase the p62 protein level
[2]; incubation for 24 hours, qRT-PCR
  transcription level of p62: significantly increase
[3]
  expression of the autophagy-related genes or the lysosomal genes overall: did not significantly increase
[4]
  mitochondrial autophagy (increase of mitochondrial number mtDNA/nDNA after Baf-A1): rescue mitochondrial autophagy
[5]; 2 or 6 months old, drinking water from day 21
  body weight of mice: no significant effect
[5]; 6 months of age
  mass of the mice brain tissue: no significant effect
[6]
  transcription level of the autophagy-related genes or the lysosomal genes: did not significantly increase
